Assay results taken from patent US5866588A, “Imidazopyridine derivatives” (British Biotech Pharmaceuticals Ltd., priority 1995, dated 1999).

Legend:
[1] = test system: Histamine Induced Bronchoconstriction; test: Histamine Induced Bronchoconstriction in the Anaesthetised Guinea Pig; assay type: in vivo, guinea pig (Dunkin-Hartley); details: p.o.; for ED50: Cavia porcellus, po, 1 h, histamine infusion 10 μgkg^-1 min^-1 one hour after dosing
Excerpt: Histamine Induced Bronchoconstriction in the Anaesthetised Guinea Pig
(§1) Following oral administration of test compound or vehicle by oral gavage, male Dunkin-Hartley guinea pigs (350-400 g) were anaesthetised by intraperitoneal injection of 60 mgkg^-1 sodium pentobarbitone (Sagatal, May & Baker UK). Through a midline incision of the neck, the trachea was cannulated and connected to a small animal respirator (Harvard, UK). Animals were artificially ventilated at a rate of 30 breaths per minute with a tidal volume of 8-10 ml to give a resting tracheal inflation pressure of 15 mmHg as measured by a physiological pressure transducer (type P23XL, Spectramed USA) connected to a side arm of the respiratory circuit.
A jugular vein was cannulated for the administration of propranolol and for the infusion of histamine. A carotid artery was cannulated for the measurement of arterial blood pressure via a physiological pressure transducer (type P23XL, Spectramed USA). Blood pressure and tracheal inflation pressure were recorded on a thermal array chart recorder (type TA4000, Gould Electronics UK).
Following a suitable equilibration period, propranolol (1 mgkg^-1 i.v. & 3 mgkg^-1 s.c. Sigma Chemical Co. UK) was administered to inhibit any resulting catecholamine release following histamine administration.
Histamine infusion (10 μgkg^-1 min^-1 at a rate of 10 mlhr^-1 using a perfusion pump type Perfuser securer FT, B. Braun Germany) was started at the one hour time point following oral administration of the test compound or vehicle. Changes in tracheal inflation pressure and blood pressure of drug treated animals were compared with changes from vehicle treated animals and ED50 values determined. One dose of test compound was investigated per animal.

[2] = test system: PAF-Induced Platelet Aggregation; test: Inhibition of PAF-Induced Platelet Aggregation; assay type: cell-based, rabbit (New Zealand White); details: Oryctolagus cuniculus; rabbit platelet-rich plasma, PAF 100 ngml^-1
Procedure: Inhibition of PAF-Induced Platelet Aggregation
Male New Zealand White rabbits (3.0-3.5 kg) were anaesthetised by intravenous administration of sodium pentobarbitone, 18 mg.ml^-1, via a marginal ear vein. The trachea was exposed and connected to a respiratory pump (Harvard UK) to provide artificial ventilation. A carotid artery was exposed and cannulated and the animal was exsanguinated. Whole blood was collected in a syringe containing tri-sodium citrate (3.8% w/v) to a ratio of 1 part citrate:9 parts blood.
Collected blood was centrifuged at 180×g for 15 minutes at room temperature (21° C.) to prepare platelet-rich plasma (PRP). The remaining blood was then centrifuged at 1800×g for 10 minutes at room temperature to obtain platelet poor plasma (PPP).
Platelet count of the PRP was measured using a Technicon H1 blood cell differential analyser (Bayer Diagnostics UK) and adjusted with PPP to obtain a final platelet count of 500,000 platelets per μl of plasma, this being the normal physiological platelet count for rabbits. Corrected PRP was left to equilibrate at room temperature for 30 minutes before use.
Aggregation studies were carried out using a 4-channel aggregometer (PAP-4C, BioData USA) as follows: 400 μl aliquots of PRP were placed in siliconised cuvettes and incubated to 37° C. for 1 to 2 minutes in the heating block of the aggregometer. Baseline (100% aggregation) was set up using PPP (500 μl in a siliconised cuvette). The PRP was placed into a measuring well of the aggregometer, and a stirrer bar was added. The sample was stirred at 1000 rpm. The machine was activated to set the 0% aggregation level. Test compound or vehicle (50 μl) was added to the PRP, where any effects on the baseline was noted. PAF (100 ngml^-1 as 50 μl aliqout) was added to the PRP 3 minutes after test compound or vehicle. Aggregation was measured for a further 4 minutes after PAF addition and the maximum aggregation over the 4 minutes was recorded.
The investigation of different concentrations of test compound was performed in triplicate. Data were expressed as […] of the sample and test compound data were compared to vehicle data to obtain % inhibition of the PAF-induced aggregation from which IC50 values could be determined.
PAF was made up in sterile saline (NaCl 0.9% w/v) containing BSA (0.25% w/v) from an initial stock solution (10 mgml^-1 in EtOH). Test compounds were made up as 1×10^-3 M stock solutions in sterile saline containing molar equivalents of 1N HCl (v/v) or in DMSO.
In the results which follow, a comparison compound A was included. Compound A was prepared as described in EP-A-260613 (G. D. Searle), but is not part of the present invention. As appears from the results of the comparison, compounds of this invention, all of which incorporate a fragment capable of H1 antagonist activity, are observed to show improved PAF antagonist activity over compound A.

[3] = molecular target: T1, histamine-1 receptors on Hela-S3 cells (Homo sapiens, UniProt P35367); test: Inhibition of [^3 H]-Pyrilamine Binding to Histamine-1 Receptors on Hela-S3 Cells; details: 0.5 h; 1 μM test compound; [^3 H]-pyrilamine remaining specifically bound; 37° C., 30 minutes; read-out: % Specific Binding at 1 μM
T1 construct: histamine-1 receptors on Hela-S3 cells (American Type Culture Collection); host or cells: HeLa-S3 cells (intact cell suspension)
Procedure: Inhibition of [^3 H]-Pyrilamine Binding to Histamine-1 Receptors on Hela-S3 Cells
The inhibition of [^3 H]-pyrilamine binding to histamine-1 receptors on Hela-S3 cells (American Type Culture Collection) was determined by isotopic labelling and filtration techniques. A suspension of the cells in buffer (25 ml, 0.5% Bovine Serum Albumin, 0.1% sodium azide, phosphate buffered saline (PBS)) was centrifuged at 1000 rpm for 5 minutes in a JOUAN CR 422 centrifuge, collected, resuspended in buffer (25 ml) and spun again. The cells were counted using a haemocytometer and resuspended in buffer to provide a final concentration of 4.5×10^6 cells ml^-1. A portion of the Hela-S3 cell suspension (1 ml) was added to each assay tube containing 25 μl of vehicle (50% DMSO/buffer) or 25 μl of test compound solution (dissolved in DMSO and diluted with sufficient PBS to give a final test concentration of 1 μM) and 25 μl of [^3 H]-pyrilamine (supplied by Amersham International and diluted with PBS to 3 nM). The tubes were mixed, incubated at 37° C. for 30 minutes and then spun at 4° C. at 2000 rpm for 2 minutes. The supernatant was removed and the cells resuspended in buffer (repeated ×2). The cells were suspended in 300 μl of a 2:1 solution of 1M sodium hydroxide and 1% sodium dodecyl sulphate. The tubes were left ovemight before the contents were tranferred to a scintillation vial, treated with 10 ml, OPTIPHASE MP scintillation fluid (OPTIPHASE MP is a trade mark) and the radioactivity counted in a scintillation counter. Non-displacable binding (NDB) was determined using Astemizole (5×10^-5 M) in place of test compounds. Defining the counts for total binding from the vehicle control sample as "TB" and the counts for total binding with antogonist as "TBA" the percentage specific binding (% SB) can be determined from the following equation.

[4] = test system: PAF Induced Bronoconstriction; test: PAF Induced Bronoconstriction in the Anaesthetised Guinea Pig; assay type: in vivo, guinea pig (Dunkin-Hartley); details: Cavia porcellus, po, 1 h; p.o.; PAF 100 ngkg^-1 i.v. bolus one hour after dosing; read-out: ED50 (PAF induced bronchoconstriction)
Procedure: PAF Induced Bronoconstriction in the Anaesthetised Guinea Pig
as §1, with “or vehicle,” for “or vehicle by oral gavage,”, “(Harvard, UK)” for “(Harvard, UK).”, “tidal” for “tidal volume”
A jugular vein was cannulated for the administration of a bolus dose of propranolol and for the later administration of bolus PAF. A carotid artery was cannulated for the measurement of arterial blood pressure via a physiological pressure transducer (type P23XL, Spectramed USA). Blood pressure and tracheal inflation pressure were recorded on a thermal array chart recorder (type TA4000, Gould Electronics UK).
Propranolol (1 mgkg^-1 i.v. & 3 mgkg^-1 s.c. Sigma Chemical Co. UK) was administered 10 minutes before PAF in order to prevent the bronchodilatory activity of catecholamines which may be released in response to PAF administration. PAF (100 ngkg^-1 i.v. bolus) was administered at the one hour time point following oral administration of the test compound or vehicle.
Changes in tracheal inflation pressure and blood pressure of drug treated animals were compared with changes from vehicle treated animals and percentage inhibition determined. One dose of test compound was investigated per animal.

T1 sequence (P35367 whole entry): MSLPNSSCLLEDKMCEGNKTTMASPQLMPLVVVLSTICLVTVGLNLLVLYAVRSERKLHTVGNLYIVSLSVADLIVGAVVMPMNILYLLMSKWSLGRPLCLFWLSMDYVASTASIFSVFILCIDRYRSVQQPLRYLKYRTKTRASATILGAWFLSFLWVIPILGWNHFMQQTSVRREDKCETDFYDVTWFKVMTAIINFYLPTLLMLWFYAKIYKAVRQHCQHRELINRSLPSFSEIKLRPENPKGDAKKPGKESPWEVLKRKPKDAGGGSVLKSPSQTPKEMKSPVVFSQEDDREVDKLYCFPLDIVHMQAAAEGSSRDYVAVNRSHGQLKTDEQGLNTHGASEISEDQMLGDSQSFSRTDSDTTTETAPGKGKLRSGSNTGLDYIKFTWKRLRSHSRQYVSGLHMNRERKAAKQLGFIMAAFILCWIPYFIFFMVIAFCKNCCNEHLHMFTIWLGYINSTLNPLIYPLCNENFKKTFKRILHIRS

Compound | ED50 [1] | IC50 [2] | activity at 1 µM [3] | ED50 [4] | % inhibition (histamine induced bronchoconstriction) ([1]; 10 mg/kg, histamine infusion one hour after dosing)
CCN(C/C=C/c1cccc(/C(=C/CN2CCCC2)c2ccc(C)cc2)n1)C(=O)c1ccc(Cn2c(C)nc3cnccc32)cc1 [Example 13, N-Ethyl-4-(1H-2-methylimidazo[4,5-c]pyridin-1-ylmethyl)-N-{3-[6-(3-pyrrolidin-1-yl1-{4-tolyl}-prop-1E-enyl)-pyridin-2-yl]-prop-2E-enyl}-benzamide] | 1 mg/kg | 238 nM | 30% | 2.55 mg/kg | –
Cc1ccc(/C(=C\CN2CCCC2)c2cccc(/C=C/CN(C)C(=O)c3ccc(Cn4c(C)nc5cnccc54)cc3)n2)cc1 [Example 3, N-Methyl-4-(1H-2-methylimidazo[4,5-c]pyridin-1-ylmethyl)-N-{3-[6-(3-pyrrolidin-1-yl-1-{4-tolyl}-prop-1E-enyl)-pyridin-2-yl]-prop-2E-enyl}-benzamide] | 0.4 mg/kg | 1480 nM | 19% | 5.8 mg/kg | –
Cc1ccc(/C(=C\CN2CCCC2)c2cccc(/C=C/CN(C(=O)c3ccc(Cn4c(C)nc5cnccc54)cc3)C3CCCCC3)n2)cc1 [Example 4, N-Cyclohexyl-4-(1H-2-methylimidazo[4,5-c]pyridin-1-ylmethyl)-N-{3-[6-(3-pyrrolidin-1-yl-1-{4-tolyl}-prop-1E-enyl)-pyridin-2-yl]-prop-2E-enyl}-benzamide] | 0.85 mg/kg | 167 nM | 42% | 1.55 mg/kg | –
CCCN(C/C=C/c1cccc(/C(=C/CN2CCCC2)c2ccc(C)cc2)n1)C(=O)c1ccc(Cn2c(C)nc3cnccc32)cc1 [Example 16, N-Propyl-4-(1H-2-methylimidazo[4,5-c]pyridin-1-ylmethyl)-N-{3-[6-(3-pyrrolidin-1-yl-1-{4-tolyl}-prop-1E-enyl)-pyridin-2-yl]-prop-2E-enyl}-benzamide] | – | 130 nM | 30% | 1.55 mg/kg | 46%
Cc1nc2cnccc2n1Cc1ccc(C(=O)N(C/C=C/c2cccc(/C(=C/CN3CCCC3)c3ccc(Cl)cc3)n2)C2CCCCC2)cc1 [Example 20, N-Cyclohexyl-4-(1H-2-methylimidazo[4,5-c]pyridin-1-ylmethyl)-N-{3-[6-(3-pyrrolidin-1-yl-1-{4-chlorophenyl}-prop-1E-enyl)-pyridin-2-yl]-prop-2E-enyl}-benzamide] | 1 mg/kg | – | – | 4.2 mg/kg | –
